According to BindingDB's records for doi:10.1021/jm00365a017 (1983):

Target: Delta-type opioid receptor (Mus musculus) (UniProt P32300)
Assay: Ability to induce 50% of maximal effect in mouse vas deferens expressing Opioid receptor delta 1

Chain of Delta-type opioid receptor (Mus musculus) (P32300 whole entry, looked up): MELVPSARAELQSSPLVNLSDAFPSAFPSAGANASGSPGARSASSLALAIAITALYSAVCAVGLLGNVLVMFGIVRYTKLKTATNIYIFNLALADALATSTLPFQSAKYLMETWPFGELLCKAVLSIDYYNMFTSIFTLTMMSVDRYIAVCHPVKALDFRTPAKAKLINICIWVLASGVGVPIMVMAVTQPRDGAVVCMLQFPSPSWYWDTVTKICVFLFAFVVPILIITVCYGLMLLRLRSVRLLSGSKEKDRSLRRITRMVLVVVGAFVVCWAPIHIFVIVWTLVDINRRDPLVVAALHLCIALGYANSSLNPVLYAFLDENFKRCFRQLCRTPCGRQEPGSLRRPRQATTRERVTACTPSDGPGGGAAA

Question: How did the IC50 turn out when `CC1C2Cc3ccc(O)cc3C1(C)CCN2CCc1ccccc1` (stereo unspecified) was run?
Answer: 8 nM
